We go through six compounds from paper PMC8878107, “Human Enterovirus B: Selective Inhibition by Quinoxaline Derivatives and Bioinformatic RNA-Motif Identification as New Targets” (Pharmaceuticals, 2022).

The subject of series [1] is CVB3. Nature of the series: Plaque-reduction assay, CVB3 in Vero-76 cells. Type of series: cell-based, human enterovirus B. Here is the method:
(§1) The activity of compounds against EV-A71 and D68 was based on inhibition of virus-induced cytopathogenicity in HeLa and Vero-76 cells, respectively, acutely infected at a multiplicity of infection (m.o.i.) of 0.01. After a 72 or 120 h incubation at 37 °C, cell viability was verified by the MTT method, as previously described. The activity of compounds against CVB3, CVB4, CVB5, and E9 was determined in infected cell monolayers by plaque-reduction assays, as previously reported. Briefly, the monolayer of Vero-76 cells or LLC-MK2 (E9) was grown overnight on a 24-well plate. The cells were then infected for 2 h with 250 μL of proper virus dilutions to obtain 50–100 PFU/well. Following removal of the unadsorbed virus, 500 μL of the medium (D-MEM with L-glutamine, 4500 mg/L D-glucose, and 1% inactivated FBS) containing 0.75% methyl-cellulose, with serial dilutions of quinoxalines, was added. The overlay was also added to untreated wells (non-infection controls). Cultures were incubated at 37 °C for 3 (CVB3, CVB4, CVB5) or 5 days (E9) and then fixed with PBS containing 50% ethanol and 0.8% crystal violet, washed and air-dried. Plaques were then counted.
(§2) The size of cell growth/viability and viral multiplication at each tested drug concentration was expressed as percentage of untreated controls. Concentrations resulting in 50% inhibition (CC50 or EC50) were determined by linear regression analysis.

The next series deals with EV-D68. Nature of the series: Inhibition of EV-D68-induced cytopathogenicity, MTT method. Type of series: cell-based, human enterovirus D 68. As to conditions: Enterovirus D, EVD68, 72 h; HeLa cells, MTT method after 3 days p.i. Here is the method:
as §1, with “After” for “The activity of compounds against EV-A71 and D68 was based on inhibition of virus-induced cytopathogenicity in HeLa and Vero-76 cells, respectively, acutely infected at a multiplicity of infection (m.o.i.) of 0.01. After”
as §2

The nature of series [2]: Cytotoxicity, MTT method, mock-infected Vero-76 cells. Type of series: cell-based. As to conditions: African green monkey (Cercopithecus aethiops), concentration reducing viability of mock-infected Vero-76 cells by 50%, read-out: CC50 Vero76. Here is the method:
(§3) HeLa cells were seeded in 96-well plates at a density of 5 × 10^5 cells/mL, in minimum essential medium with Earle’s salts (MEM-E), L-glutamine, 1 mM sodium pyruvate, and 25 mg/L kanamycin, supplemented with 10% fetal bovine serum (FBS). Vero-76 and LLC-MK2 cells were seeded in 96-well plates at a density of 5 × 10^5 cells/mL in Dulbecco’s modified eagle medium (D-MEM) with L-glutamine and 25 mg/L kanamycin, complemented with 10% FBS. Cell cultures were then incubated in a humidified, 5% CO2 atmosphere at 37 °C, with or without serial dilutions of analyzed compounds. The medium used for the cytotoxic assay, as well as for antiviral assays, included 1% of the proper serum. Cell viability was determined after 72–120h at 37 °C by MTT method.
as §2

The next series has as its system EV-A71. Put plainly: Inhibition of EV-A71-induced cytopathogenicity, MTT method. In kind it is cell-based, human enterovirus A71. As to conditions: Enterovirus A, EVA71, 96 h, 50% protection of Vero-76 cells from EV-A71-induced cytopathogenicity, day 4/5 p.i.
Series [3] relates to E9. Nature of the series: Plaque-reduction assay, E9 in LLC-MK2 cells. Type of series: cell-based, human enterovirus B. As to conditions: Enterovirus B; for EC50: concentration reducing plaque number by 50%. Here is the method:
as §1, §2

Series [4] can be described thus: Cytotoxicity, MTT method, mock-infected LLC-MK2 cells. In kind it is cell-based. As to conditions: rhesus monkey, concentration reducing viability of mock-infected LLC-MK2 cells by 50%. The procedure: as §3, §2
Series [5] has as its system CVB4. Nature of the series: Plaque-reduction assay, CVB4 in Vero-76 cells. In kind it is cell-based, human enterovirus B. Here is the method:
as §1, §2

Series [6] in a line: Cytotoxicity, MTT method, mock-infected HeLa cells. In kind it is cell-based. As to conditions: human, concentration reducing viability of mock-infected HeLa cells by 50%. The procedure:
as §3, §2

Series [7] has as its system E9. Nature of the series: Virus yield reduction assay (YRA), E9 in LLC-MK2 cells. In kind it is cell-based, human enterovirus B. The procedure:
(§4) Vero-76 and LL-MKC cells were inoculated with CVB3, CVB4, or E9 at an m.o.i. of 0.1 in maintenance medium and compounds at non-cytotoxic concentrations. After the adsorption period (2 h) at 37 °C and 5% CO2, the inoculum was removed and replaced with fresh medium containing the same concentration of compounds. After 72 h for CVB3 and CVB4 or 120 h for E9 at 37 °C and 5% CO2, each sample was collected and diluted with serial passages, starting from 10^−1, up to 10^−10. The titers of the supernatants were quantified by standard plaque assay. NM 107 (2’-C-Methyl-Cytidine) and pleconaril were employed as reference compounds.

The test system of series [8] is CVB3. Nature of the series: Adsorption assay, CVB3 in Vero-76 cells. To be noted: 20 µM, 2 h at 4 °C, m.o.i. 0.1, Vero-76 cells. Type of series: cell-based, human enterovirus B. Here is the method:
(§5) Vero-76 cells were incubated with CVB3 and CVB4 (m.o.i. = 0.1) and derivatives 6 or 7 for 2 h at 4 °C, using compound concentrations of 20 µM. […] LLC-MK2 cells were incubated with E9 and derivative 8 (Figure 3e) under the above-described experimental conditions. To identify the replication stage inhibited by quinoxaline derivatives, we performed a time-of-drug addiction assay (T.O.A.) (Figure 3a–e). Experiments were carried out on CVB3-, CVB4-,and E9-infected cells (m.o.i. = 1) treated with compounds (20 µM) at different step times of infection until 12 h post-infection, followed by virus titer determination by plaque assay.
(§6) Vero-76 and LLC-MK2 cells grown in 24-well plates were infected with CVB3, CVB4, and E9, at an m.o.i. of 0.1, with or without test compounds, and incubated for 120 min at 4 °C. Medium containing unbound virus was then removed, and cells were washed twice with PBS and overlayed with fresh medium. Plaques were counted after 72 h of incubation at 37 °C.

The test system of series [9] is CVB4. Put plainly: Virus yield reduction assay (YRA), CVB4 in Vero-76 cells. In kind it is cell-based, human enterovirus B. To be noted: m.o.i. 0.1, 72 h. Here is the method:
as §4

The subject of series [10] is CVB3. Put plainly: Virus yield reduction assay (YRA), CVB3 in Vero-76 cells. Type of series: cell-based, human enterovirus B. To be noted: m.o.i. 0.1, 72 h; for Reduction of CVB3 viral titers (trend over concentrations): non-cytotoxic concentrations (100, 20, 4, 0.8 µM). The procedure:
as §4

Series [11] has as its system CVB4. Put plainly: Adsorption assay, CVB4 in Vero-76 cells. In kind it is cell-based, human enterovirus B. As to conditions: 20 µM, 2 h at 4 °C, m.o.i. 0.1, Vero-76 cells. Here is the method: as §5, §6
The mark [12] stands for this setting: Enterovirus B, CVB3, Vero 76, concentration reducing plaque number by 50%.
Where [13] appears, read: concentration reducing plaque number by 90%.
The mark [14] stands for this setting: Enterovirus B, CVB4, Vero 76, concentration reducing plaque number by 50%.
The mark [15] stands for this setting: Enterovirus B, CVB3, Vero 76, concentration reducing plaque number by 90%.
Setting [16] is: concentration reducing plaque number by 50%.
The mark [17] stands for this setting: Enterovirus B, CVB4, Vero 76, concentration reducing plaque number by 90%.

Molecules are shown by their SMILES.

Consider `CCOC(=O)c1ccc(SCc2ccc3nc(OC)c(OC)nc3c2)nc1` [Compound 8], for which the EC50 with CVB3 [1] (setting [12]) is greater than 100 µM; with EV-D68, 50 µM; with EV-A71, greater than 100 µM; in the series with E9 [3], 6 µM; in the series on CVB4 [5] (setting [14]) it was greater than 100 µM. The CC50 in series [2], in [4] and in series [6] was greater than 100 µM throughout. In addition, in the series on E9 [3] (setting [13]), the EC90 is 16 µM. Besides, the “Effect on E9 viral replication” value with E9 [7] (100 and 20 µM, m.o.i. 0.1, 120 h) is “completely suppressed viral replication”. Further, the “Reduction in E9 viral loads” value in the series on E9 [7] (lower concentrations (below 20 µM)) was “no reduction in viral loads”.

For `C[C@@]1(O)[C@H](O)[C@@H](CO)O[C@H]1n1ccc(N)nc1=O` [NM107, 2′-C-methylcytidine, reference compound], the results for the 50% effective concentration (EC50) in the series on CVB3 [1] (setting [12]) and in the series on EV-A71 were 29 ± 3 µM and 6 ± 1 µM, respectively. The CC50 in [2] was greater than 100 µM.

Turning to `Cc1cc(CCCOc2c(C)cc(-c3noc(C(F)(F)F)n3)cc2C)on1` [PLe, Pleconaril, reference compound], the EC50 in the series with EV-D68 is 0.4 ± 0.2 µM; in the series on E9 [3], 0.1 ± 0.05 µM; with CVB4 [5] (setting [14]) it was 2 ± 1 µM. Also, the CC50 in series [2], in series [4] and in series [6] was greater than 100 µM in each case.

For `COc1nc2ccc(CSc3ccc(C(=O)O)cc3)cc2nc1OC` [Compound 7], the EC50 with CVB3 [1] (setting [12]) is 2 to 3 µM; in the series with CVB3 [1] (setting [16]) it was 2 µM; in the series with EV-D68, greater than 95 µM; in the series on EV-A71, greater than 100 µM; with E9 [3], greater than 100 µM; with CVB4 [5] (setting [14]) it was 1.5 µM. For the same compound, the EC50 with CVB4 [5] (setting [16]) came to 1.45 µM. Moreover, the EC90 in the series on CVB3 [1] (setting [15]) stood at 14 µM; in the series on CVB4 [5] (setting [17]), 3 µM; in the series on CVB4 [5] (setting [13]), 3.2 µM. In the series on CVB3 [8], the “CVB3 virus titer in comparison to the untreated infected control” value is “detectable reduction of the virus titer”. In addition, the “Inhibition of CVB4” value in the series on CVB4 [9] (0.8 µM) is recorded as “no significant inhibition”. Besides, in the series with CVB4 [9] (100, 20, and 4 µM), the “Production of CVB4 virus” value is “completely inhibited”. Moreover, the CC50 in series [2] is 100 µM; in series [4], 100 µM; in series [6] it was 95 µM. Besides, the “Reduction in CVB3 viral load” value in the series on CVB3 [10] (4 µM) is listed as “one log reduction in viral load”. Moreover, the “Reduction of CVB3 viral titers (trend over concentrations)” value with CVB3 [10] is reported as “dose-dependent reduction of viral titers”. Moreover, in the series with CVB4 [11], the “CVB4 virus titer in comparison to the untreated infected control” value is listed as “detectable reduction of the virus titer”.

As to `COc1nc2ccc(CSc3ccc(C(=O)O)cn3)cc2nc1OC` [Compound 9], the concentration giving a half-maximal response (EC50) in the series with CVB3 [1] (setting [12]) was 100 µM; in the series on EV-D68, 70 µM; with EV-A71, greater than 100 µM; in the series with E9 [3] it was 55 µM; with CVB4 [5] (setting [14]) it was greater than 100 µM. The CC50 in [2] is 100 µM; in series [4], 100 µM; in [6], greater than 100 µM.

For the compound `CCOC(=O)c1ccc(SCc2ccc3nc(OC)c(OC)nc3c2)cc1` [Compound 6], the EC50 in the series on CVB3 [1] (setting [12]) was 2 to 3 µM; in the series with CVB3 [1] (setting [16]), 2.5 µM; in the series with EV-D68, greater than 100 µM; with EV-A71 it was greater than 100 µM; with E9 [3] it was greater than 100 µM; in the series on CVB4 [5] (setting [14]), 1.7 µM. Also, the figures for the concentration for an effect of 90% (EC90) in the series on CVB3 [1] (setting [15]), in the series with CVB3 [1] (setting [13]) and in the series on CVB4 [5] (setting [17]) were 12 µM, 13 µM and 12 µM, respectively. In addition, in the series on CVB3 [8], the “CVB3 virus titer in comparison to the untreated infected control” value is “detectable reduction of the virus titer”. Moreover, the “Reduction of CVB4 viral titers” value is listed as 2 logs in the series on CVB4 [9] (0.8 µM) and 2.5 logs with CVB4 [9] (4 µM). The “Effect on CVB4 viral titers” value with CVB4 [9] (100 and 20 µM) was “complete suppression”. Moreover, the CC50 in [2], in series [4] and in series [6] was greater than 100 µM each time. Moreover, the “Reduction of CVB3 viral titers (trend over concentrations)” value in the series with CVB3 [10] is given as “same trend of reduction in viral loads”. Moreover, the “CVB4 virus titer in comparison to the untreated infected control” value in the series with CVB4 [11] is given as “detectable reduction of the virus titer”.
